Results published in US11415579B2, “Assay for measuring a rate of reaction between a target and a ligand candidate” (Imperial College Innovations Ltd., priority 2016, dated 2022).

Key:
[1] = Kinetic thiol consumption assay with model thiol glutathione; assay type: physicochemical; set-up: Rate constant with glutathione (k(GSH)): unit not given here; settings: for Rate constant with glutathione (k(GSH)): 500 μM ligand, 5 μM thiol, phosphate buffer pH 8; for Rate constant with Glutathione: Protein: Glutathione, cysteine position NA, in h-1
Outline: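 GSH 5 μM, degassed phosphate buffer pH 8, TCEP beads 2% v/v; acrylamide added; RT, 1 h; fluorescence ex/em 380/470 nm; normalized to DMSO/thiol control; k from first-order exponential decay fit.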

[2] = biological target: T1, human cyclin-dependent kinase 2 (Cdk2) (Homo sapiens, UniProt P24941); assay: Kinetic thiol consumption assay with wild type Cdk2 (C177); assay type: binding; set-up: key to Rate enhancement, Cdk2 WT: k(Cdk2) divided by k(model thiol); Rate constant with Cdk2 (k(Cdk2)): unit not given here; settings: for Rate constant with Cdk2 (k(Cdk2)): 500 μM ligand, 5 μM thiol, phosphate buffer pH 8; for Rate enhancement, Cdk2 WT: no additional mutations; for Rate constant with Cdk2 WT: Protein: Cdk2, cysteine position WT, in h^-1; for k(Cdk2)/k(Cdk2_mut) rate enhancement: model thiol Cdk2[C177A, F80C, K278C]; for k(Cdk2)/k(GSH) rate enhancement: model thiol glutathione
T1 construct: poly-histidine; made in house; host or cells: E. coli
Outline: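 Rate enhancement: first-order decay constant with Cdk2 over that with a model thiol. Thiols (5 μM, degassed phosphate buffer pH 8, immobilized TCEP) were incubated with acrylamides at room temperature, and thiol consumption followed by fluorescence at 380/470 nm, normalized to DMSO control. Cdk2 was His-tagged, E. coli-expressed, with one surface cysteine (C177).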

Cdk2[C177A, F80C, K278C] = biological target: T2, Cdk2[C177A, F80C, K278C] (Homo sapiens, UniProt P24941, C177A/F80C/K278C); assay: Kinetic thiol consumption assay with mutant Cdk2 as model thiol; assay type: binding; set-up: unit not given here; settings: 500 μM ligand, 5 μM thiol, phosphate buffer pH 8
T2 construct: poly-histidine; made in house; host or cells: E. coli
Outline: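 Model thiol: His-tagged human Cdk2 C177A/F80C/K278C (two engineered surface cysteines), E. coli-expressed, 5 μM in degassed phosphate buffer pH 8 with immobilized TCEP beads (2% v/v). Fluorescence (ex/em 380/470 nm) followed over time at room temperature, normalized to DMSO/thiol control. First-order decay fit gives rate constants.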

Cdk2(C177A, F80C) = biological target: T3, Cdk2(C177A, F80C) (Homo sapiens, UniProt P24941, C177A/F80C); assay: Kinetic thiol consumption assay with Cdk2 mutant F80C, incl. kobs versus concentration (Kd, k2); assay type: binding; set-up: key to Rate enhancement, Cdk2 F80C: Cdk2 rate constant divided by model-thiol rate constant; settings: additional mutation C177A; for Rate constant with Cdk2 F80C: Protein: Cdk2, cysteine position F80C, in h^-1
T3 construct: poly-histidine; made in house; host or cells: E. coli
Outline: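 His-tagged Cdk2(C177A/F80C) from E. coli or model thiol, 5 μM in degassed phosphate buffer pH 8 with TCEP beads, reacted with acrylamide ligands; fluorescence (ex/em 380/470 nm) normalized to DMSO control and fitted to first-order decay for kobs. Kd and k2 obtained from hyperbolic fit of kobs versus ligand concentration.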

Cdk2(H71C) (C177A) = biological target: T4, Cdk2(H71C) (C177A) (Homo sapiens, UniProt P24941, C177A/H71C); assay: Kinetic thiol consumption assay with Cdk2 mutant H71C; assay type: binding; set-up: key to Rate enhancement, Cdk2 H71C: rate constant with Cdk2 ÷ rate constant with model thiol (fold); settings: additional mutation C177A; for Rate constant with Cdk2 H71C: Protein: Cdk2, cysteine position H71C, in h^-1
T4 construct: poly-histidine; made in house; host or cells: E. coli
Outline: (§1)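 5 μM thiol, degassed phosphate pH 8, 2% v/v immobilized TCEP beads; 1 h RT; fluorescence ex 380/em 470 nm; normalized vs DMSO/thiol-only; first-order exponential decay fit → rate constant; Cdk2 k / model-thiol k = rate enhancement per acrylamide.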

Cdk2(S276C) (C177A) = biological target: T5, Cdk2(S276C) (C177A) (Homo sapiens, UniProt P24941, C177A/S276C); assay: Kinetic thiol consumption assay with Cdk2 mutant S276C; assay type: binding; set-up: key to Rate enhancement, Cdk2 S276C: rate constant with Cdk2 ÷ rate constant with model thiol (fold); settings: additional mutation C177A; for Rate constant with Cdk2 S276C: Protein: Cdk2, cysteine position S276C, in h^-1
T5 construct: poly-histidine; made in house; host or cells: E. coli
Outline: as §1

Cdk2(N272C) (C177A) = biological target: T6, Cdk2(N272C) (C177A) (Homo sapiens, UniProt P24941, C177A/N272C); assay: Kinetic thiol consumption assay with Cdk2 mutant N272C; assay type: binding; set-up: key to Rate enhancement, Cdk2 N272: rate constant with Cdk2 ÷ rate constant with model thiol (fold); settings: for Rate enhancement, Cdk2 N272: Cdk2 N272, additional mutation C177A; for Rate constant with Cdk2 N272C: Protein: Cdk2, cysteine position N272C, additional mutation C177A, in h^-1
T6 construct: poly-histidine; made in house; host or cells: E. coli
Outline: as §1

Cdk2(T182C) (C177A) = biological target: T7, Cdk2(T182C) (C177A) (Homo sapiens, UniProt P24941, C177A/T182C); assay: Kinetic thiol consumption assay with Cdk2 mutant T182C; assay type: binding; set-up: key to Rate enhancement, Cdk2 T182C: rate constant with Cdk2 ÷ rate constant with model thiol (fold); settings: additional mutation C177A; for Rate constant with Cdk2 T182C: Protein: Cdk2, cysteine position T182C, in h^-1
T7 construct: poly-histidine; made in house; host or cells: E. coli
Outline: as §1

Cdk2(R122C) (C177A) = biological target: T8, Cdk2(R122C) (C177A) (Homo sapiens, UniProt P24941, C177A/R122C); assay: Kinetic thiol consumption assay with Cdk2 mutant R122C; assay type: binding; set-up: key to Rate enhancement, Cdk2 R122C: rate constant with Cdk2 ÷ rate constant with model thiol (fold); settings: additional mutation C177A; for Rate constant with Cdk2 R122C: Protein: Cdk2, cysteine position R122C, in h-1
T8 construct: poly-histidine; made in house; host or cells: E. coli
Outline: as §1

Cdk2(S181C) (C177A) = biological target: T9, Cdk2(S181C) (C177A) (Homo sapiens, UniProt P24941, C177A/S181C); assay: Kinetic thiol consumption assay with Cdk2 mutant S181C; assay type: binding; set-up: key to Rate enhancement, Cdk2 S181C: rate constant with Cdk2 ÷ rate constant with model thiol (fold); settings: additional mutation C177A; for Rate constant with Cdk2 S181C: Protein: Cdk2, cysteine position S181C, in h^-1
T9 construct: poly-histidine; made in house; host or cells: E. coli
Outline: as §1

Compound | Rate constant with glutathione (k(GSH)) [1] | Rate constant with Glutathione [1] | Rate constant with Cdk2 (k(Cdk2)) [2] | Rate enhancement, Cdk2 WT [2] | Rate constant with Cdk2 WT [2] | k(Cdk2)/k(Cdk2_mut) rate enhancement [2] | k(Cdk2)/k(GSH) rate enhancement [2] | Rate constant with Cdk2[C177A, F80C, K278C] (k(Cdk2_mut)) (Cdk2[C177A, F80C, K278C]) | Rate enhancement, Cdk2 F80C (Cdk2(C177A, F80C)) | Rate constant with Cdk2 F80C (Cdk2(C177A, F80C)) | Rate enhancement, Cdk2 H71C (Cdk2(H71C) (C177A)) | Rate constant with Cdk2 H71C (Cdk2(H71C) (C177A)) | Rate enhancement, Cdk2 S276C (Cdk2(S276C) (C177A)) | Rate constant with Cdk2 S276C (Cdk2(S276C) (C177A)) | Rate enhancement, Cdk2 N272 (Cdk2(N272C) (C177A)) | Rate constant with Cdk2 N272C (Cdk2(N272C) (C177A)) | Rate enhancement, Cdk2 T182C (Cdk2(T182C) (C177A)) | Rate constant with Cdk2 T182C (Cdk2(T182C) (C177A)) | Rate enhancement, Cdk2 R122C (Cdk2(R122C) (C177A)) | Rate constant with Cdk2 R122C (Cdk2(R122C) (C177A)) | other results
C=CC(=O)N1CCCC1c1cnc2ccccc2c1 (centres unmarked) [EL-1064] | 0.01205 | 0.01195 | 0.00589 | 0.4929 | 0.00589 | 0.7691 | 0.489 | 0.00766 | 1.645 | 0.01966 | 0.8653 | 0.01034 | 1.074 | 0.01284 | 1.056 | 0.01262 | 1.7 | 0.02031 | 0.5786 | 0.006914 | Rate enhancement, Cdk2 S181C (Cdk2(S181C) (C177A)): 1.469; Rate constant with Cdk2 S181C (Cdk2(S181C) (C177A)): 0.01756
C=CC(=O)N(CCCN1CCOCC1)Cc1ccncc1 [CA-192] | 0.00676 | 0.01342 | 0.00341 | 0.4352 | 0.00584 | 0.7625 | 0.5048 | 0.00447 | 0.1157 | 0.001553 | 0.218 | 0.002926 | 0.08092 | 0.001086 | 0.3716 | 0.004987 | 0.4571 | 0.006134 | 0.136 | 0.001825 | Rate enhancement, Cdk2 S181C (Cdk2(S181C) (C177A)): 0.1475; Rate constant with Cdk2 S181C (Cdk2(S181C) (C177A)): 0.00198
C=CC(=O)Nc1ccccc1C(=O)c1ccccc1 [EL-1004] | 0.01818 | 0.01811 | 0.06444 | 3.558 | 0.06444 | 0.3351 | 3.545 | 0.1923 | 22.32 | 0.4042 | 2.131 | 0.03859 | 1.281 | 0.02319 | 0.4117 | 0.007455 | 7.09 | 0.1284 | 0.9845 | 0.01783 | Rate enhancement, Cdk2 S181C (Cdk2(S181C) (C177A)): 0.9371; Rate constant with Cdk2 S181C (Cdk2(S181C) (C177A)): 0.01697
C=CC(=O)NCC1(NC(=O)OC(C)(C)C)CCCCC1 [EL-1143] | 0.00493 | 0.008837 | 0.014 | 4.291 | 0.03792 | 1.746 | 2.839 | 0.00802 | 1.059 | 0.009355 | 0.2745 | 0.002426 | 3.446 | 0.03045 | 1.495 | 0.01321 | 17.17 | 0.1517 | 0.3144 | 0.002778 | Rate enhancement, Cdk2 S181C (Cdk2(S181C) (C177A)): 2.376; Rate constant with Cdk2 S181C (Cdk2(S181C) (C177A)): 0.021
C=CC(=O)N1CCCN2C(=O)CCC12c1ccc(OC)cc1 (centres unmarked) [EL-1168] | 0.01343 | 0.01334 | 0.00974 | 0.7298 | 0.009736 | 5.551 | 0.7249 | 0.00175 | 0.3123 | 0.004166 | 0.8583 | 0.01145 | 0.6022 | 0.008034 | 0.6555 | 0.008745 | 2.927 | 0.03904 | 0.3022 | 0.004032 | Rate enhancement, Cdk2 S181C (Cdk2(S181C) (C177A)): 1.741; Rate constant with Cdk2 S181C (Cdk2(S181C) (C177A)): 0.02323
